Measured values: patent US8476233B2, “Methods for treatment for ulcerative colitis in mammals” (Therapeutic Research, LLC, priority 2003, dated 2013)
Where two headings read alike, the source gives them in different places.

Experiments:
[1] = test system: glutathione peroxidase (GPx); settings: cited from earlier work
colonic mucosa = settings: rats, 3% solution, cited from earlier work
[2] = test system: mitochondrial electron transport chain (whole chain respiration); settings: same study as cigarette tar; cited from earlier work
ulcerative colitis = experiment: Example 3: patient's response to earlier therapies; type: in vivo, human; settings: patient history before the treatment of the invention
Source text: The recurrences occurred every 3-5 months.

For N[C@@H](CCS)C(=O)O [Homocysteine, homocysteine], which “inhibition of glutathione peroxidase (GPx) activity” value ([1]; Outinen et al., 1999) is on record?
Its value is 10 fold.

And the “concentration of free homocysteine at which inhibition of GPx occurs” value ([1]; physiologic concentration, Chen, 2000)?
Its value is 9 µmol/L.

What does the source list for OO [hydrogen peroxide]?
extent of mucosal inflammation above the anus (colonic mucosa; 5 hours after injection): 5 cm; extent of mucosal inflammation above the anus (colonic mucosa; by one week): 9 cm; colonic outcome of rectal injection (colonic mucosa; rectal injection): acute and chronic ulcerative colitis

For CN1CCCC1c1cccnc1 (stereo not shown) [nicotine], which “effect on electron transport activity” value [2] is on record?
The value was “no effect”.

Which “clinical response of ulcerative colitis episodes to earlier therapy” value (ulcerative colitis) does the source give for C[C@]12C=CC(=O)C=C1CC[C@@H]1[C@@H]2C(=O)C[C@@]2(C)[C@H]1CC[C@]2(O)C(=O)CO [prednisone] here?
The value was “improved for a few months”.
